Data taken from US10662183B2, “Inhibitors of myocardin-related transcription factor and serum response factor (MRTF/SRF)-mediated gene transcription and methods for use of the same” (THE REGENTS OF THE UNIVERSITY OF MICHIGAN, priority 2014, dated 2020).

Tested on: SRE.L-firefly luciferase reporter (Rho/MKL1 pathway) in PC-3 prostate cancer cells
Experiment: SRE.L-luciferase reporter assay
Format: cell-based
Conditions: 19 h, PC-3 cells transfected with Gα12Q231L, SRE.L and pRL-TK reporters; compound 19 hrs
Procedure, shortened: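 PC-3 cells co-transfected with Gα12Q231L (2 ng), SRE.L-firefly (50 ng) and pRL-TK Renilla (7 ng) reporters, then treated with 0–100 μM compound for 19 h at 37° C. in 0.5% FBS DMEM. Dual-luciferase luminescence expressed as % inhibition vs DMSO; WST-1 viability at 450 nm; n=3 in triplicate.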

O=C(Nc1ccc(Cl)cc1)C1CN(C(=O)c2cccc(-c3ccccn3)c2)CC(F)(F)C1 (centres unmarked) [Example E-096, N-(4-chlorophenyl)-5,5-difluoro-1-(3-(pyridin-2-yl)benzoyl)piperidine-3-carboxamide]
IC50: 1.1 µM

O=C(Nc1c(F)cccc1F)C1CCCN(C(=O)c2cccc(-c3ccco3)c2)C1 (centres unmarked) [Example E-097, N-(2,6-difluorophenyl)-1-(3-(furan-2-yl)benzoyl)piperidine-3-carboxamide]
IC50: 32 µM

O=C(Nc1ccc(Cl)cc1)C1CN(C(=O)c2cccc(-c3ncc[nH]3)c2)CC(F)(F)C1 (centres unmarked) [Example E-098, 1-(3-(1H-imidazol-2-yl)benzoyl)-N-(4-chlorophenyl)-5,5-difluoropiperidine-3-carboxamide]
IC50: 10 µM

O=C(Nc1ccc(Cl)cc1)C1CN(C(=O)c2cccc(-c3cncnc3)c2)CC(F)(F)C1 (centres unmarked) [Example E-099, N-(4-chlorophenyl)-5,5-difluoro-1-(3-(pyrimidin-5-yl)benzoyl)piperidine-3-carboxamide]
IC50: 3.3 µM

O=C(Nc1ccc(Cl)cc1)C1CN(C(=O)c2cccc(-c3cccnc3)c2)CC(F)(F)C1 (centres unmarked) [Example E-100, N-(4-chlorophenyl)-5,5-difluoro-1-(3-(pyridin-3-yl)benzoyl)piperidine-3-carboxamide]
IC50: 0.91 µM

O=C(Nc1ccccc1Cl)C1CCCN(C(=O)c2cccc(-c3ccco3)c2)C1 (centres unmarked) [Example E-101, N-(2-chlorophenyl)-1-(3-(furan-2-yl)benzoyl)piperidine-3-carboxamide]
IC50: 5.6 µM

N#Cc1ccc(NC(=O)C2CCCN(C(=O)c3cccc(-c4ccco4)c3)C2)cc1 (centres unmarked) [Example E-104, N-(4-cyanophenyl)-1-(3-(furan-2-yl)benzoyl)piperidine-3-carboxamide]
IC50: 2.9 µM

O=C(Nc1ccc(F)cc1)C1CCCN(C(=O)c2cccc(-c3ccco3)c2)C1 (centres unmarked) [Example E-105, N-(4-fluorophenyl)-1-(3-(furan-2-yl)benzoyl)piperidine-3-carboxamide]
IC50: 13 µM

O=C(Nc1ccc(Cl)cc1)C1CN(C(=O)c2cccc(-c3cn[nH]c3)c2)CC(F)(F)C1 (centres unmarked) [Example E-106, 1-(3-(1H-pyrazol-4-yl)benzoyl)-N-(4-chlorophenyl)-5,5-difluoropiperidine-3-carboxamide]
IC50: 15 µM

O=C(Nc1ccc(Cl)cc1)C1CCN(C(=O)c2cccc(-c3ccco3)c2)C1 (centres unmarked) [Example E-107, N-(4-chlorophenyl)-1-(3-(furan-2-yl)benzoyl)pyrrolidine-3-carboxamide]
IC50: 14 µM

O=C(Nc1ccc(Cl)cc1)C1CCCN(C(=O)c2ccc(-n3cccc3)cc2)C1 (centres unmarked) [Example E-109, 1-(4-(1H-pyrrol-1-yl)benzoyl)-N-(4-chlorophenyl)piperidine-3-carboxamide]
IC50: 6.3 µM

O=C(Nc1ccc(Cl)cc1)C1CCCN(Cc2ccc(-n3cccc3)cc2)C1 (centres unmarked) [Example E-110, 1-(4-(1H-pyrrol-1-yl)benzyl)-N-(4-chlorophenyl)piperidine-3-carboxamide]
IC50: 2.9 µM

Cc1ccc(NC(=O)C2CCCN(C(=O)c3cccc(-c4ccco4)c3)C2)cc1 (centres unmarked) [Example E-111, 1-(3-(furan-2-yl)benzoyl)-N-(p-tolyl)piperidine-3-carboxamide]
IC50: 15 µM

O=C(NCc1ccc(Cl)cc1)C1CCCN(C(=O)c2cccc(-c3ccco3)c2)C1 (centres unmarked) [Example E-112, N-(4-chlorobenzyl)-1-(3-(furan-2-yl)benzoyl)piperidine-3-carboxamide]
IC50: 21 µM

CCNc1ccc(CN2CCCC(C(=O)Nc3ccc(Cl)cc3)C2)cc1 (centres unmarked) [Example E-113, N-(4-chlorophenyl)-1-(4-(ethylamino)benzyl)piperidine-3-carboxamide]
IC50: 8 µM

O=C(Nc1ccc(Cl)cc1)C1CCCN(Cc2ccc(-n3cccn3)cc2)C1 (centres unmarked) [Example E-114, 1-(4-(1H-pyrazol-1-yl)benzyl)-N-(4-chlorophenyl)piperidine-3-carboxamide]
IC50: 1.6 µM

O=C(Nc1ccc(Cl)cc1)C1CCCN(C(=O)c2cccc(-n3ccnc3)c2)C1 (centres unmarked) [Example E-115, 1-(3-(1H-imidazol-1-yl)benzoyl)-N-(4-chlorophenyl)piperidine-3-carboxamide]
IC50: 5.2 µM
